# Laboratory results reported in US10870638B2, “Pyridazinone compound or its salt, and herbicide containing it” (ISHIHARA SANGYO KAISHA, LTD., priority 2016, dated 2020).
# Columns and labels:
# Type in all cases: in vivo
# Details in all cases: active ingredient amount 31 g/ha, 14th day after application
# [1] = tested on: barnyardgrass (Echinochloa crus-qalli L.); test: Test Example 1: foliar treatment, growth inhibition rate on 14th day
# In short: (§1)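 Visual 0–100% inhibition scoring (100 = complete kill) at 14 days after foliar treatment of soil-grown seedlings at species-specific leaf stages, with the compound sprayed as a wettable powder or emulsifiable concentrate dilution.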
# [2] = tested on: corn (Zea mays L.); test: as above
# In short: as §1
# [3] = tested on: crabgrass (Digitaria sanquinalis L.); test: as above
# In short: as §1
# [4] = tested on: green foxtail (Setaria viridis L.); test: as above
# In short: (§2)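 Compounds applied once to leaves of pot-grown plants; wild oat at 0.4–1.2 leaf, foxtail 0.5–3.2, rice 0.2–2.7, soybean primary leaf. Inhibition estimated by eye on day 14.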
# [5] = tested on: italian ryegrass (Lolium multiflorum Lam.); test: as above
# In short: as §1
# [6] = tested on: redroot pigweed (Amaranthus retroflexus L.); test: as above
# In short: as §1
# [7] = tested on: rice (Oryza sativa L.); test: as above
# In short: as §2
# [8] = tested on: soybean (Glycine max Merr.); test: as above
# In short: as §2
# [9] = tested on: wheat (Triticum aestivum L.); test: as above
# In short: as §1
# [10] = tested on: wild oat (Avena fatua L.); test: as above
# In short: as §2
# [11] = tested on: barnyardgrass (Echinochloa crus-qalli L.); test: Test Example 2: soil application on the day after sowing, growth inhibition rate on 14th day
# In short: (§3)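 Read-out is visual percent growth inhibition 14 days post-application, scaled from 0 (as non-treated) to 100 (complete kill). Treatment: soil application by small sprayer the day after sowing, compound formulations diluted in water equivalent to 1,000 L/ha.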
# [12] = tested on: corn (Zea mays L.); test: as above
# In short: as §3
# [13] = tested on: crabgrass (Digitaris sanquinalis L.); test: as above
# In short: as §3
# [14] = tested on: green foxtail (Setaria viridis L.); test: as above
# In short: as §3
# [15] = tested on: prickly sida (Sida spinosa L.); test: as above
# In short: as §3
# [16] = tested on: redroot pigweed (Amaranthus retroflexus L.); test: as above
# In short: as §3
# [17] = tested on: rice (Oryza sativa L.); test: as above
# In short: as §3
# [18] = tested on: soybean (Glycine max Merr.); test: as above
# In short: as §3
# [19] = tested on: velvetleaf (Abutilon theophrasti MEDIC.); test: as above
# In short: as §3
# [20] = tested on: wheat (Triticum aestivum L.); test: as above
# In short: as §3
SMILES,Growth inhibition rate (%) Barnyardgrass [1],Growth inhibition rate (%) Corn [2],Growth inhibition rate (%) Crabgrass [3],Growth inhibition rate (%) Green foxtail [4],Growth inhibition rate (%) Italian ryegrass [5],Growth inhibition rate (%) Redroot pigweed [6],Growth inhibition rate (%) Rice [7],Growth inhibition rate (%) Soybean [8],Growth inhibition rate (%) Wheat [9],Growth inhibition rate (%) Wild oat [10],Growth inhibition rate (%) Barnyardgrass [11],Growth inhibition rate (%) Corn [12],Growth inhibition rate (%) Crabgrass [13],Growth inhibition rate (%) Green foxtail [14],Growth inhibition rate (%) Prickly sida [15],Growth inhibition rate (%) Redroot pigweed [16],Growth inhibition rate (%) Rice [17],Growth inhibition rate (%) Soybean [18],Growth inhibition rate (%) Velvetleaf [19],Growth inhibition rate (%) Wheat [20]
CC(=O)Oc1c(C)nn(C)c(=O)c1-c1cc(Oc2ncc(Cl)cc2F)ccc1C [Compound 2-59],99%,90%,83%,83%,90%,0%,90%,0%,40%,95%,75%,0%,70%,40%,0%,0%,0%,0%,0%,0%
CC(=O)Oc1c(C)nn(C)c(=O)c1-c1cc(Oc2ccc(C(F)(F)F)cn2)ccc1C [Compound 2-61],99%,95%,78%,95%,93%,0%,90%,0%,95%,98%,65%,0%,50%,98%,0%,0%,0%,0%,0%,0%
CC(=O)Oc1c(C)nn(C)c(=O)c1-c1cc(Oc2ncc(C(F)(F)F)cc2F)ccc1C [Compound 2-63],100%,100%,98%,100%,100%,0%,90%,0%,95%,100%,100%,0%,100%,98%,0%,0%,15%,0%,0%,0%
Cc1ccc(Oc2ncc(C(F)(F)F)cc2Br)cc1-c1c(O)c(C)nn(C)c1=O [Compound 2-83],99%,60%,98%,99%,80%,0%,0%,0%,10%,88%,99%,0%,100%,100%,75%,100%,30%,0%,0%,0%
Cc1ccc(Oc2ncc(C(F)(F)F)cc2C(F)(F)F)cc1-c1c(O)c(C)nn(C)c1=O [Compound 2-84],99%,90%,100%,100%,93%,0%,0%,0%,0%,99%,100%,0%,100%,100%,0%,0%,60%,0%,0%,0%
CCc1nn(C)c(=O)c(-c2cc(Oc3nc4ccc(Cl)cc4o3)ccc2C)c1O [Compound 2-89],95%,30%,65%,93%,20%,0%,10%,20%,0%,0%,95%,0%,30%,50%,0%,0%,30%,0%,0%,0%
